Results: publication PMC11224556, “Next-generation of BBQ analogues that selectively target breast cancer” (Frontiers in Chemistry, 2024)

Experiments:
HT29 (colorectal) cells = system: HT29 (colorectal) cells; design: method as in Gilbert et al., 2020; settings: HT29, Colon; MTT, 72 h; ref Gilbert et al., 2020; cited from earlier work
BE2-C (neuronal) cells = system: BE2-C (neuronal) cells; design: method as in Gilbert et al., 2020; settings: Neuron, MTT, 72 h, ref Gilbert et al., 2020; cited from earlier work
A2780 (ovary) cells = system: A2780 (ovary) cells; design: method as in Gilbert et al., 2020; settings: MTT, 72 h, ref Gilbert et al., 2020; cited from earlier work
MIA (pancreas) cells = system: MIA (pancreas) cells; design: method as in Gilbert et al., 2020; settings: MTT, 72 h, ref Gilbert et al., 2020; cited from earlier work
[1] = system: MDA-MB-468 breast cancer cells; design: method as in Gilbert et al., 2020; settings: MDA-MB-468, Breast (TN); MTT, 72 h; ref Gilbert et al., 2020; cited from earlier work
H460 (lung, ER+) cells = system: H460 (lung, ER+) cells; design: method as in Gilbert et al., 2020; settings: MTT, 72 h, ref Gilbert et al., 2020; cited from earlier work
T47D breast cancer cells = system: T47D breast cancer cells; design: method as in Gilbert et al., 2020; settings: Breast (ER/PR), MTT, 72 h, ref Gilbert et al., 2020; cited from earlier work
SJ-G2 (brain) cells = system: SJ-G2 (brain) cells; design: method as in Gilbert et al., 2020; settings: SJ-G2, Brain (GBM); MTT, 72 h; ref Gilbert et al., 2020; cited from earlier work
U87 (brain) cells = system: U87 (brain) cells; design: method as in Gilbert et al., 2020; settings: U87, Brain (GBM); MTT, 72 h; ref Gilbert et al., 2020; cited from earlier work

SMILES | GI50 (HT29 (colorectal) cells) [µM] | GI50 (BE2-C (neuronal) cells) [µM] | GI50 (A2780 (ovary) cells) [µM] | GI50 (MIA (pancreas) cells) [µM] | GI50 [1] [µM] | GI50 (H460 (lung, ER+) cells) [µM] | GI50 (T47D breast cancer cells) [µM] | GI50 (SJ-G2 (brain) cells) [µM] | GI50 (U87 (brain) cells) [µM] | melting point [°C]
Nc1ccccc1N1C(=O)c2cccc3cccc(c23)C1=O [Compound 2, 2-(2-aminophenyl)-1H-benzo[de]isoquinoline-1,3(2H)-dione] | 32 ± 2 | > 50 | 21 ± 4 | > 50 | 0.1 ± 0.02 | 15 ± 7.5 | 0.18 ± 0.02 | > 50 | > 50 | 
O=c1c2cccc3cccc(c4n1Cc1ccccc1N=4)c32 [Compound 13, 7H,9H-benzo[4,5]isoquinolino[1,2-b]quinazolin-7-one] |  |  |  |  |  |  |  |  |  | 256 to 258
